In ChEMBL document CHEMBL1201862, “PubChem BioAssay data set” (2004):
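Results reflect a 48-hour exposure of cells in 96-well plates to compound at five concentrations. At the GI50, growth is halved.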 Activity calls are given as the source filed them. No stated cut-off is given here; in the data, active = GI50 up to about 1.1 µM and inactive = higher.

Columns and labels:
Experiment in all cases: DTP human tumour cell line panel, 48 h
[1] = tested on: SK-MEL-5
[2] = tested on: SNB-75
[3] = tested on: SNB-78
[4] = tested on: A549
[5] = tested on: OVCAR-5
[6] = tested on: HOP-62
[7] = tested on: SK-MEL-28
[8] = tested on: OVCAR-8
[9] = tested on: OVCAR-4
[10] = tested on: UO-31
[11] = tested on: LXFL 529
[12] = tested on: DMS-273
[13] = tested on: Malme-3M
[14] = tested on: SN12C
[15] = tested on: LOX IMVI
[16] = tested on: K562
[17] = tested on: DMS-114
[18] = tested on: NCI-H522
[19] = tested on: HCT-116
[20] = tested on: M14
[21] = tested on: SF-268
[22] = tested on: SR
[23] = tested on: RPMI-8226
[24] = tested on: KM-20L2
[25] = tested on: HT-29
[26] = tested on: OVCAR-3
[27] = tested on: KM12
[28] = tested on: U-251
[29] = tested on: HCT-15
[30] = tested on: TK-10
[31] = tested on: CCRF-CEM
[32] = tested on: NCI-H226
[33] = tested on: ACHN
[34] = tested on: XF498
[35] = tested on: 786-0
[36] = tested on: COLO 205
[37] = tested on: NCI-H23
[38] = tested on: CAKI-1
[39] = tested on: SW-620
[40] = tested on: UACC-257
[41] = tested on: HOP-18
[42] = tested on: DLD-1
[43] = tested on: M19-MEL
[44] = tested on: RXF 393
[45] = tested on: SF-295
[46] = tested on: MOLT-4
[47] = tested on: UACC-62
[48] = tested on: HCC 2998
[49] = tested on: SNB-19
[50] = tested on: SK-MEL-2
[51] = tested on: EKVX
[52] = tested on: IGROV-1
[53] = tested on: NCI-H460
[54] = tested on: HL-60
[55] = tested on: SK-OV-3
[56] = tested on: SF-539
[57] = tested on: HOP-92
[58] = tested on: A498

## COc1cc(C2C(Cl)C(=O)N2NC(=O)Cc2ccccc2)ccc1O (centres undefined)
[1]
  GI50: 69.7 µM (inactive)
[2]
  GI50: 35.8 µM (inactive)
[3]
  GI50: > 100 µM (inactive)
[4]
  GI50: > 100 µM (inactive)
[5]
  GI50: > 100 µM (inactive)
[6]
  GI50: > 100 µM (inactive)
[7]
  GI50: > 100 µM (inactive)
[8]
  GI50: > 100 µM (inactive)
[9]
  GI50: > 100 µM (inactive)
[10]
  GI50: 22.6 µM (inactive)
[11]
  GI50: 70.6 µM (inactive)
[12]
  GI50: > 100 µM (inactive)
[13]
  GI50: > 100 µM (inactive)
[14]
  GI50: > 100 µM (inactive)
[15]
  GI50: 77.4 µM (inactive)
[16]
  GI50: 35.2 µM (inactive)
[17]
  GI50: 50.2 µM (inactive)
[18]
  GI50: 21.3 µM (inactive)
[19]
  GI50: 45.6 µM (inactive)
[20]
  GI50: > 100 µM (inactive)
[21]
  GI50: > 100 µM (inactive)
[22]
  GI50: 18.3 µM (inactive)
[23]
  GI50: 32.6 µM (inactive)
[24]
  GI50: > 100 µM (inactive)
[25]
  GI50: 73.3 µM (inactive)
[26]
  GI50: 33.3 µM (inactive)
[27]
  GI50: 91 µM (inactive)
[28]
  GI50: 79.3 µM (inactive)
[29]
  GI50: > 100 µM
[30]
  GI50: > 100 µM (inactive)
[31]
  GI50: 23.9 µM (inactive)
[32]
  GI50: 55.6 µM (inactive)
[33]
  GI50: 93.5 µM (inactive)
[34]
  GI50: > 100 µM (inactive)
[35]
  GI50: 83.2 µM (inactive)
[36]
  GI50: > 100 µM (inactive)
[37]
  GI50: 45.1 µM (inactive)
[38]
  GI50: > 100 µM (inactive)
[39]
  GI50: 68.4 µM (inactive)
[40]
  GI50: > 100 µM (inactive)
[41]
  GI50: 40.3 µM (inactive)
[42]
  GI50: > 100 µM (inactive)
[43]
  GI50: > 100 µM (inactive)
[44]
  GI50: 59 µM (inactive)
[45]
  GI50: > 100 µM (inactive)
[46]
  GI50: 24.6 µM (inactive)
[47]
  GI50: 73.3 µM (inactive)
[48]
  GI50: 57.5 µM (inactive)
[49]
  GI50: 47.3 µM (inactive)
[50]
  GI50: > 100 µM (inactive)
[51]
  GI50: > 100 µM (inactive)
[52]
  GI50: > 100 µM (inactive)
[53]
  GI50: > 100 µM (inactive)
[54]
  GI50: 28.1 µM (inactive)
[55]
  GI50: > 100 µM (inactive)

## Cc1cccc(C)c1NC(=O)CCC(=O)CC(=O)C(C)C
[1]
  GI50: > 100 µM (inactive)
[2]
  GI50: > 100 µM (inactive)
[3]
  GI50: > 100 µM (inactive)
[4]
  GI50: > 100 µM (inactive)
[5]
  GI50: > 100 µM (inactive)
[6]
  GI50: > 100 µM (inactive)
[7]
  GI50: > 100 µM (inactive)
[8]
  GI50: > 100 µM (inactive)
[56]
  GI50: > 100 µM (inactive)
[9]
  GI50: > 100 µM (inactive)
[10]
  GI50: > 100 µM (inactive)
[11]
  GI50: > 100 µM (inactive)
[57]
  GI50: > 100 µM (inactive)
[12]
  GI50: > 100 µM (inactive)
[58]
  GI50: > 100 µM (inactive)
[13]
  GI50: > 100 µM (inactive)
[14]
  GI50: > 100 µM (inactive)
[16]
  GI50: > 100 µM (inactive)
[17]
  GI50: > 100 µM (inactive)
[18]
  GI50: > 100 µM (inactive)
[19]
  GI50: > 100 µM (inactive)
[20]
  GI50: > 100 µM (inactive)
[21]
  GI50: > 100 µM (inactive)
[22]
  GI50: > 100 µM (inactive)
[23]
  GI50: > 100 µM (inactive)
[24]
  GI50: > 100 µM (inactive)
[25]
  GI50: > 100 µM (inactive)
[26]
  GI50: > 100 µM (inactive)
[27]
  GI50: > 100 µM (inactive)
[28]
  GI50: > 100 µM (inactive)
[29]
  GI50: > 100 µM
[30]
  GI50: > 100 µM (inactive)
[31]
  GI50: > 100 µM (inactive)
[32]
  GI50: > 100 µM (inactive)
[33]
  GI50: > 100 µM (inactive)
[34]
  GI50: > 100 µM (inactive)
[35]
  GI50: > 100 µM (inactive)
[36]
  GI50: > 100 µM (inactive)
[37]
  GI50: > 100 µM (inactive)
[38]
  GI50: > 100 µM (inactive)
[39]
  GI50: > 100 µM (inactive)
[40]
  GI50: > 100 µM (inactive)
[41]
  GI50: > 100 µM (inactive)
[42]
  GI50: > 100 µM (inactive)
[43]
  GI50: > 100 µM (inactive)
[44]
  GI50: > 100 µM (inactive)
[45]
  GI50: > 100 µM (inactive)
[46]
  GI50: > 100 µM (inactive)
[47]
  GI50: > 100 µM (inactive)
[48]
  GI50: > 100 µM (inactive)
[49]
  GI50: > 100 µM (inactive)
[50]
  GI50: > 100 µM (inactive)
[51]
  GI50: > 100 µM (inactive)
[52]
  GI50: > 100 µM (inactive)
[53]
  GI50: > 100 µM (inactive)
[54]
  GI50: > 100 µM (inactive)
[55]
  GI50: > 100 µM (inactive)

## CC(=O)OC1CC2OC(Cc3ccccc32)O1 (centres undefined)
[2]
  GI50: 65 µM (inactive)
[3]
  GI50: > 100 µM (inactive)
[4]
  GI50: > 100 µM (inactive)
[6]
  GI50: > 100 µM (inactive)
[7]
  GI50: > 100 µM (inactive)
[8]
  GI50: > 100 µM (inactive)
[56]
  GI50: 29.9 µM (inactive)
[10]
  GI50: > 100 µM (inactive)
[11]
  GI50: > 100 µM (inactive)
[57]
  GI50: 34 µM (inactive)
[12]
  GI50: > 100 µM (inactive)
[13]
  GI50: 27.6 µM (inactive)
[14]
  GI50: 64.1 µM (inactive)
[15]
  GI50: > 100 µM (inactive)
[16]
  GI50: > 100 µM (inactive)
[17]
  GI50: > 100 µM (inactive)
[18]
  GI50: > 100 µM (inactive)
[19]
  GI50: > 100 µM (inactive)
[20]
  GI50: 79.1 µM (inactive)
[21]
  GI50: > 100 µM (inactive)
[22]
  GI50: > 100 µM (inactive)
[23]
  GI50: > 100 µM (inactive)
[24]
  GI50: > 100 µM (inactive)
[25]
  GI50: > 100 µM (inactive)
[26]
  GI50: > 100 µM (inactive)
[27]
  GI50: > 100 µM (inactive)
[28]
  GI50: 52.1 µM (inactive)
[30]
  GI50: > 100 µM (inactive)
[31]
  GI50: 56.1 µM (inactive)
[32]
  GI50: 36.8 µM (inactive)
[33]
  GI50: > 100 µM (inactive)
[34]
  GI50: > 100 µM (inactive)
[35]
  GI50: > 100 µM (inactive)
[36]
  GI50: > 100 µM (inactive)
[37]
  GI50: > 100 µM (inactive)
[39]
  GI50: > 100 µM (inactive)
[40]
  GI50: > 100 µM (inactive)
[41]
  GI50: 32.8 µM (inactive)
[42]
  GI50: 64.1 µM (inactive)
[43]
  GI50: 60.4 µM (inactive)
[44]
  GI50: > 100 µM (inactive)
[45]
  GI50: 65.3 µM (inactive)
[46]
  GI50: 48.9 µM (inactive)
[47]
  GI50: > 100 µM (inactive)
[48]
  GI50: > 100 µM (inactive)
[49]
  GI50: > 100 µM (inactive)
[50]
  GI50: > 100 µM (inactive)
[51]
  GI50: > 100 µM (inactive)
[52]
  GI50: > 100 µM (inactive)
[53]
  GI50: > 100 µM (inactive)
[54]
  GI50: > 100 µM (inactive)
[55]
  GI50: > 100 µM (inactive)
